The subject of data set [1] is CD1 male mice. Description: Acetic acid-induced abdominal writhing assay. It is filed as in vivo, mouse. Particulars: for No. of writhes counted within a 10 min time interval, 25 min post drug administration, beginning 5 min after acetic acid injection: 75 mg/Kg body weight p.o., single animals, n = 7 (raw data for FIG. 1A); for number of writhes induced by injection of acetic acid: mean, vehicle only 42.3+/−7.2. Here is the method: Two different assays were utilized to quantify the analgesic effects of the compounds. All tests were performed on CD1 male mice. […] In some embodiments, the vehicle can comprise Agent K, 0.2%, Bio-serve, or Labrafil 1944 (Gottefosee, France). Compound or vehicle was administered orally by lavage under brief halothane anesthesia to animals fasted overnight.
Acetic acid-induced abdominal writhing assay. Contraction of the abdominal muscle and stretching of the hind limbs is induced as a response to intraperitoneal (ip) injection of an acetic acid solution, as described Hendershot and Forsaith, 1959. In this model of visceral pain, abdominal contractions (writhing) is induced in mice by an ip injection of 0.4% acetic acid at a dose of 10 mL/Kg, 25 min after drug administration. The number of writhes is counted for 10 min beginning 5 min after acetic acid injection. […] Data is expressed as mean±SEM, n=7.

Data set [2] concerns CD1 male mice. The data set can be described thus: Liver function assays (ALT, AST, ALP) in serum. In kind it is in vivo, mouse. Particulars: 600 mg/kg PO.
Data set [3] relates to CD1 male mice. Description: Blood creatinine functional assay. In kind it is in vivo, mouse. Particulars: 600 mg/Kg PO, serum.
For data set [4], the system named is CD1 male mice. Description: Tail-flick assay. In kind it is in vivo, mouse. Particulars: 600 mg/Kg per os, 30 minutes post injection; versus ApAP. On the procedure: Two different assays were utilized to quantify the analgesic effects of the compounds. All tests were performed on CD1 male mice. […] In some embodiments, the vehicle can comprise Agent K, 0.2%, Bio-serve, or Labrafil 1944 (Gottefosee, France). Compound or vehicle was administered orally by lavage under brief halothane anesthesia to animals fasted overnight. Tail-flick assay. Analgesic effect of drugs was determined by using the reaction time (latency) of mice to thermal stimulation of the tail tip. All animals (CD1 male mice) were fasted overnight (15 hours) and, their baseline tail flick latency (seconds) was recorded using an IITC Tail Flick Analgesia Meter. The tail of each mouse was exposed to a focused beam of light and the latency to remove the tail from the path of the stimulus were recorded electronically using a photoelectric cell of the IITC Tail Flick Analgesia Meter. The stimulus intensity was adjusted to produce baseline latencies of 3-6 seconds. […] At 30 minutes post injection, tail flick latency was recorded again to determine total change in latency. […] Data expressed as mean±SEM, n=10.

In a further data set the test system is mouse. The data set can be described thus: LPS-induced fever mouse model. In kind it is in vivo. Particulars: versus ApAP, 2 h, 8 h and 10 h.
Data set [5] concerns HepaRG and hHEPs. The data set can be described thus: LDH cytotoxicity assay in hepatocytes. In kind it is cell-based, human. Particulars: 500 μM and 1000 μM; time and dose-dependent. On the procedure:
(§1) HepaRG cells procured from Thermo Fisher Scientific (Invitrogen) are terminally differentiated hepatic cells, which are derived from a hepatic progenitor cell line that retains many characteristics of primary human hepatocytes. […] LDH assay. Using the Pierce LDH Cytotoxicity assay kit from Thermo Scientific, cells were incubated in presence of various drug compounds, followed by collection of the medium supernatant. Release of LDH was measured in 96 well plate formats. The absorbance was measured at 490 nm and 680 nm and the final result was absorbance observed at 680 nm subtracted from absorbance observed at 490 nm (A490 nm-[…] nm). GSH assay. Using the ThiolTracker Violet Glutathione Detection reagent from Molecular Probes (Invitrogen), after hepatocytes were incubated in the presence of various compounds, incubation medium was removed, cells rinsed with D-PBS conditioned medium followed by incubation with pre-warmed ThiolTracker Violet dye (working solution prepared as per manufacturer's instructions) for 30 minutes. Fluorescence was measured at the following wavelengths: excitation (404 nm) and emission (526 nm). The finalized result was expressed as relative fluorescence units (RFU), which indicates the cellular level of reduced glutathione (GSH) in intact cells.

For data set [6], the system named is HepaRG and hHEPs. Description: GSH assay (ThiolTracker Violet) in hepatocytes. In kind it is cell-based, human. The note with it: 500 μM and 1000 μM; time and dose-dependent. Here is the method:
as §1

A further data set deals with T1, CYP2E1 (Homo sapiens, UniProt P05181).
T1 construct: purchased Life Technologies, Invitrogen/Thermo Fisher Scientific; host or cells: insect cells (microsomes)
T1 sequence (P05181 whole entry): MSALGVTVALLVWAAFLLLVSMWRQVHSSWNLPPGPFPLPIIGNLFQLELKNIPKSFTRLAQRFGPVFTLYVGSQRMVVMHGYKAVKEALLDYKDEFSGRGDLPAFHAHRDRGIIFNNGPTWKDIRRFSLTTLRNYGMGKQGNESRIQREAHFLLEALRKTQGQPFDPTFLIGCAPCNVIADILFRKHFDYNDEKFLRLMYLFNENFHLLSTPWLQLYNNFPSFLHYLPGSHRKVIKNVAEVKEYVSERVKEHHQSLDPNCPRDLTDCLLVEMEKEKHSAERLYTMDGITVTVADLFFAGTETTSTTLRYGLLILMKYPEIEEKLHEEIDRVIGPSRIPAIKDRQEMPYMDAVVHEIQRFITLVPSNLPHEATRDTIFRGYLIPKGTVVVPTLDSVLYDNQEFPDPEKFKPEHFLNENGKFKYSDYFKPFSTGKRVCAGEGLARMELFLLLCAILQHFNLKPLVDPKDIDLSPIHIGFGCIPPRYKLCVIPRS
The data set can be described thus: VIVID CYP450 screening assay, CYP2E1. In kind it is in vitro ADME. The note with it: probe CYP enzyme specific fluorogenic substrate (not named). Here is the method: (§2) The […]450 screening assay kit (Life Technologies, Invitrogen/Thermo Fisher Scientific) was used as an in vitro high throughput screening. Here, each compound was mixed with a master pre-mix comprising of CYP450 BACULOSOMES (which are microsomes prepared from insect cells expressing a specific human P450 isoenzyme), reagent and regeneration system, which contained glucose-6-phosphate and glucose-6-phosphate dehydrogenase. The mixture was pre-incubated at room temperature for 20 minutes. Following this, each CYP enzyme specific substrate and NADP^+ were added and the mixture incubated at room temperature for 30 minutes. The reaction was stopped by addition of 0.5 M Tris base. CYP activity was evaluated by measuring the fluorescence of the fluorescent metabolite generated from each CYP enzyme specific substrate.

A further data set concerns the target T2, CYP3A4 (Homo sapiens, UniProt P08684).
T2 construct: purchased Life Technologies, Invitrogen/Thermo Fisher Scientific; host or cells: insect cells (microsomes)
The data set can be described thus: VIVID CYP450 screening assay, CYP3A4. In kind it is in vitro ADME. Particulars: probe CYP enzyme specific fluorogenic substrate (not named). Here is the method:
as §2

The target in another data set is T3, CYP2D6 (Homo sapiens, UniProt P10635).
T3 construct: purchased Life Technologies, Invitrogen/Thermo Fisher Scientific; host or cells: insect cells (microsomes)
T3 sequence (P10635 whole entry): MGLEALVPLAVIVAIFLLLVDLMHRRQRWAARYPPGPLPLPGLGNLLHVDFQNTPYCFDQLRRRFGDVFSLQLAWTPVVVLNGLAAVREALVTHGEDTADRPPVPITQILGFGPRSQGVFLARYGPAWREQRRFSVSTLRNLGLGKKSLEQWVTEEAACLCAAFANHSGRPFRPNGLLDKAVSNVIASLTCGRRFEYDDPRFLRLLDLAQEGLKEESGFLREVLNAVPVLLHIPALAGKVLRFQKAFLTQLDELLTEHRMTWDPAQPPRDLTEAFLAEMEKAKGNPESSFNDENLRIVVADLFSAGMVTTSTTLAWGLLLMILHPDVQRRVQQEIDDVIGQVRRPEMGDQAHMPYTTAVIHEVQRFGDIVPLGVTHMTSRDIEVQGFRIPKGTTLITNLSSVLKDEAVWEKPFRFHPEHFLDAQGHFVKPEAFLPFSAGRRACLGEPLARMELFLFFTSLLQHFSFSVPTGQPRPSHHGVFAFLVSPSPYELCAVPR
Description: VIVID CYP450 screening assay, CYP2D6. It is filed as in vitro ADME. Here is the method:
as §2

Values joined by “and” are separate entries in the source; they are usually repeats but may differ in a detail not shown here. Equal values may be shown once.

This is an account of results in US11458142B2, “Compositions and methods for ameliorating pain” (The Board of Supervisors of Louisiana State University and …, priority 2017, dated 2022).

T2 sequence (P08684 whole entry): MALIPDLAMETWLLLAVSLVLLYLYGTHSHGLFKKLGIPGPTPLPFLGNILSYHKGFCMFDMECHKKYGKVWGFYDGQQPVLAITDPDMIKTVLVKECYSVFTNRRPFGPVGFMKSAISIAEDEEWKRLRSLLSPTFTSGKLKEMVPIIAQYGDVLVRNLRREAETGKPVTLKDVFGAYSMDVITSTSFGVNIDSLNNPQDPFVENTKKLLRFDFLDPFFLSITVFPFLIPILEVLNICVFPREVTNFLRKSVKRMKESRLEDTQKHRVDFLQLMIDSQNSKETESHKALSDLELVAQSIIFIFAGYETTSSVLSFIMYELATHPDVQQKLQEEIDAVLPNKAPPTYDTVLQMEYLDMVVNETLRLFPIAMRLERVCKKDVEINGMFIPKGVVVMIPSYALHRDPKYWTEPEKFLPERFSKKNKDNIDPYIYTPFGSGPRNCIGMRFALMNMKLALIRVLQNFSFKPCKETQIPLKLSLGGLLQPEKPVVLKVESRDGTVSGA

For `CC(=O)Nc1ccc(O)cc1` [ApAP, N-acetyl-para-aminophenol, reference compound], the “No. of writhes counted within a 10 min time interval, 25 min post drug administration, beginning 5 min after acetic acid injection” value in the data set with CD1 male mice [1] is 11 and 12 and 14 and 15 and 16 (3×). The “ALT, AST and AP enzyme activity (liver function tests)” value with CD1 male mice [2] is given as “Increased levels”. Also, in the data set with CD1 male mice [3], the blood creatinine levels entry is recorded as “increased levels of creatinine”.
Consider `CC(C)CNC(=O)c1ccccc1S(=O)(=O)NCC(=O)Nc1ccc(O)cc1` [SRP6p], for which, in the data set on CD1 male mice [1], the “No. of writhes counted within a 10 min time interval, 25 min post drug administration, beginning 5 min after acetic acid injection” value is 14 (2×) and 17 and 24 and 26 and 29 and 30.
Turning to `CCCCNC(=O)c1ccccc1S(=O)(=O)NCC(=O)Nc1ccc(O)cc1` [SRP6i], the “No. of writhes counted within a 10 min time interval, 25 min post drug administration, beginning 5 min after acetic acid injection” value with CD1 male mice [1] was 7 and 12 and 16 and 17 and 22 and 27 and 33.
Consider `COc1ccc(CNC(=O)c2ccccc2S(=O)(=O)NCC(=O)Nc2ccc(O)cc2)cc1` [SRP6j], for which the “No. of writhes counted within a 10 min time interval, 25 min post drug administration, beginning 5 min after acetic acid injection” value in the data set on CD1 male mice [1] is 10 and 14 and 16 and 17 and 18 (2×) and 19.
With `CCN(CC)C(=O)c1ccccc1S(=O)(=O)NCC(=O)Nc1ccc(O)cc1` [SRP6d, 2-<[(4-Hydroxy-phenylcarbamoyl)-methyl]-sulfamoyl>-N,N-diethyl-benzamide], in the data set on CD1 male mice [1], the “No. of writhes counted within a 10 min time interval, 25 min post drug administration, beginning 5 min after acetic acid injection” value was 15 (3×) and 11 and 14 and 20 and 18; the “number of writhes induced by injection of acetic acid” value is given as 15.7+/−1.2. Besides, in the data set on CD1 male mice [4], the “analgesia in tail flick test (latency)” value is “comparable significant analgesia”. The “antipyresis (temperature curves)” value in the data set with mouse is reported as “comparable antipyresis to ApAP”. Moreover, in the data set on HepaRG and hHEPs [5], the “lactate dehydrogenase (LDH) release” value was “consistently decreased”. In addition, the “amount of reduced glutathione (GSH)” value in the data set with HepaRG and hHEPs [6] is recorded as “increased”. The inhibition at 30 min on CYP2E1 was roughly 25%. The inhibition at 30 min against CYP3A4 is roughly 25%. Also, the “inhibitory effect for CYP2D6” value on CYP2D6 is reported as “marginal inhibitory effect”.
The compound `O=C(CNS(=O)(=O)c1ccccc1C(=O)NCCc1cccc(O)c1O)Nc1ccc(O)cc1` [SRP6r] came in with a melting point of 87 to 89 °C. In addition, in the data set on CD1 male mice [1], the “No. of writhes counted within a 10 min time interval, 25 min post drug administration, beginning 5 min after acetic acid injection” value is 9 and 12 and 18 and 20 and 25 and 26 (2×); the “number of writhes induced by injection of acetic acid” value is on record as 9.5+/−4. Besides, in the data set on CD1 male mice [4], the “analgesia in tail flick test (latency)” value is on record as “comparable significant analgesia”. Besides, in the data set on mouse, the “antipyresis (temperature curves)” value is “comparable antipyresis to ApAP”. Further, the “lactate dehydrogenase (LDH) release” value with HepaRG and hHEPs [5] is recorded as “consistently decreased”. The “amount of reduced glutathione (GSH)” value in the data set with HepaRG and hHEPs [6] is listed as “increased”. The compound further showed an inhibition at 30 min at CYP2E1 of roughly 25%. The same compound had an inhibition at 30 min at CYP3A4 of roughly 25%. Moreover, at CYP2D6, the “inhibitory effect for CYP2D6” value was “marginal inhibitory effect”.
Turning to `O=C(CNS(=O)(=O)c1ccccc1C(=O)NC1CCCC1)Nc1ccc(O)cc1` [SRP6o], in the data set with CD1 male mice [1], the “No. of writhes counted within a 10 min time interval, 25 min post drug administration, beginning 5 min after acetic acid injection” value is 11 and 14 and 16 and 17 (2×) and 18 and 24.
